Data on three compounds can be found in US8343945B2, “Carriers, formulations, methods for formulating unstable active agents for external application and uses thereof” (Foamix Ltd., priority 2007, dated 2013).

Like-named read-outs stand apart in the source and are kept apart here.

The nature of data set [1]: Doxycycline Hyclate compatibility test with excipients. The data set is classed as physicochemical. Particulars: for Compatibility with Doxycycline Hyclate: Summary, compatibility tested after the storage for up to 3 weeks. The protocol: Different compositions of hydrophilic and hydrophobic solvents containing Doxycycline Hyclate (Set I and Set II) and Doxycycline Monohydrate (Set III) were prepared by weighing the antibiotic in a glass vial and shaking overnight with each solvent investigated.
Group II included Doxycycline Hyclate mixed with various vehicles with addition of antioxidants like alpha tocopherol, butylated hydroxytolyene (BHT), ascorbic acid.

Data set [2] in a line: Minocycline HCl compatibility tests with excipients (colour change, HPLC assay). In kind it is physicochemical. As to conditions: for Compatibility with Minocycline HCL: Summary, compatibility tested after the storage for up to 3 weeks. The protocol: About 0.5 g foam or pre-foam formulation is dissolved with diluent (65% phosphate buffer: 35% Acetonitrile (ACN)) in a 25 mL volumetric flask. The sample is shaken […] on an inverted shaker stand for 10 min at room temperature. The resulting suspension is centrifuged for 5 minutes at 4000 rpm. The supernatant is separated by vacuum pump and filtered thereafter through a 0.45 μm PTFE+GL filter. The first few drops of the filtrate are discarded. The resultant clear solution layer is analyzed by HPLC using columnRP-8. The content of MCH is calculated against an MCH standard 0.4 mg/mL (concentration). The content of 4-epiminocycline is calculated against MCH standard 0.02 mg/mL (concentration).
Color is tested by visual observation and in particular by comparison to “Pantone® formula guide solid uncoated” colors. […] Minocycline changes color to orange/greenish with oxidation or complexation. These oxidized colors are not desirable. Colors such as 609U/608U/610U are indicative of degradation by the tetracycline antibiotic.
For convenience the excipients were divided into four different groups (I-IV).
Different compositions of hydrophilic and hydrophobic solvents containing minocycline HCl were prepared by weighing the antibiotic in a glass vial and shaking overnight with each solvent investigated (Group I and II).
Mixtures of Minocycline HCl with solid excipients like titanium dioxide, stearyl alcohol, myristyl alcohol etc were prepared by suspending Minocycline HCl in oil with stirring and then adding the solid ingredient as a powder with stirring at room temperature (Group III an IV).
Oxidation of minocycline after the storage at various temperatures was detected by color change. Assay for content of the active pharmaceutical ingredient (API) and degradation product (4-epiminocycline) was determined in some samples.
A series of experiments were performed to evaluate which mixture of components/ingredients were compatible or incompatible with minocycline. Each component or combinations of components were mixed with either 1.1% or 2.2% Minocycline HCl. The glass vials containing the formulations were wrapped in aluminum—and were subjected to a range of temperatures 25° C.; 30° C.; 40° C.; 50 C; for between one week to about 3 weeks. The best results are shown as “compatible no oxidation”.

Data set [3] is described as follows: Minocycline in hydrophilic vehicles dried with Magnesium Sulphate. The data set is classed as physicochemical. As to conditions: vehicle dried by the Magnesium Sulfate procedure. The protocol: A special procedure for drying of water residues was developed. Magnesium Sulphate was added to the glass beaker filled with one of the hydrophilic vehicles. The mixture was stirred during overnight and centrifuged the following morning. Clear supernatant was collected in a separate vessel and stored in a dessicator.
The following were tested using the above procedure: mixtures of Minocycline with PEG 200, PEG 400, glycerol, prolylene glycol, polyethylene glycol.

The nature of data set [4]: Doxycycline Monohydrate compatibility test with excipients. The data set is classed as physicochemical. As to conditions: for Compatibility with Doxycycline Monohydrate: Summary, compatibility tested after the storage for up to 3 weeks. The protocol: Different compositions of hydrophilic and hydrophobic solvents containing Doxycycline Hyclate (Set I and Set II) and Doxycycline Monohydrate (Set III) were prepared by weighing the antibiotic in a glass vial and shaking overnight with each solvent investigated. Mixtures of Doxycycline salts 1.04% w/w with solid excipients were prepared in a similar way as for Minocycline HCl.
A similar compatibility test was performed on another form of Doxycycline-Doxycycline Monohydrate. Table 17b and Table 18.

For data set [5] the following is noted: powder for IV administration reconstituted with sterile water for injection; cited from earlier work.
For data set [6] the following is noted: cited from earlier work.
The conditions of data set [7]: cited from earlier work. This is another data set of the same source.
Setting [8] is: waterless medium with alpha-tocopherol and ascorbic acid.

Turning to `OCC(O)CO` [Glycerol], the “Compatibility with Doxycycline Hyclate” value in data set [1] is “No”. For the same compound, in data set [2], the “Compatibility with Minocycline HCl” value is “intensive oxidation” and the “Compatibility with Minocycline HCL” value is “No”. Further, the “Oxidation of Minocycline HCL after dissolution in dried vehicle” value in data set [3] is given as “oxidized quickly”. In data set [4], the “Compatibility with Doxycycline Monohydrate” value is on record as “No”.
Regarding Doxycycline hyclate, the pH of solution in data set [5] was 1.8-3.3. Also, the “IV solution stable for” value in data set [6] (0.1-1 mg/mL in 0.9% sodium chloride or 5% dextrose, 25° C.) is 48 h; in data set [6] (0.1-1 mg/mL in Ringer's, 10% invert sugar, Normosol or Plasma-Lyte in dextrose, room temperature) it was 12 h; in data set [6] (2-8° C., protected from direct sunlight and artificial light) it was 72 h. For the same compound, in data set [6] (0.1-1 mg/mL in lactated Ringer's injection or 5% dextrose in lactated Ringer's), the “IV solution must be infused within” value was no more than 6 h. Also, the Solubility in alcohol result in data set [7] (alcohol) was “slightly soluble”. Further, the “Solubility in solutions of alkali hydroxides and carbonates” value in data set [7] (solutions of alkali hydroxides and carbonates) is “soluble”. Besides, the Solubility in water entry in data set [7] (water) is listed as “soluble”.
`CC(O)CO` (centres unmarked) [Propylene glycol]: the “Compatibility with Doxycycline Hyclate” value in data set [1] is “No”. Besides, the “Oxidation of Doxycycline Hyclate despite added anti oxidants” value in data set [1] (setting [8]) is “did not prevent the oxidation”. Also, the “Compatibility with Minocycline HCL” value in data set [2] is on record as “No”. Further, the “Oxidation of Minocycline HCL despite added anti oxidants” value in data set [2] (setting [8]) is “did not prevent the oxidation”. Also, in data set [3], the “Oxidation of Minocycline HCL after dissolution in dried vehicle” value is “oxidized quickly”. Moreover, in data set [4], the “Compatibility with Doxycycline Monohydrate” value is recorded as “No”. The “Oxidation of Doxycycline Monohydrate despite added anti oxidants” value in data set [4] (setting [8]) is “did not prevent the oxidation”.
